Patent publication US7300930B2, “Therapeutic acridone and acridine compounds” (Cancer Research Technology Limited, priority 2000, dated 2007)

Columns and labels:
[1] = Growth inhibition, sulforhodamine B (SRB) assay, A431; assay type: cell-based; conditions: human, A431 cervix carcinoma cells, A431, 96 hr incubation, tested as salts, read-out: Cytotoxicity - IC50 A431
Protocol: (§1) Growth inhibition was measured in three human ovarian carcinoma cell lines (A2780, CH1, and SKOV-3) and one human cervix carcinoma cell line (A431) using the sulforhodamine B (SRB) assay. Briefly, between 3000 and 6000 cells were seeded into the wells of 96-well microtiter plates and allowed to attach overnight. Compounds (acid addition and quaternary dimethiodide salts) were dissolved at 500 μM in water and immediately added to wells in quadruplicate at final concentrations of 0.05, 0.25, 1, 5 and 25 μM. Following an incubation period of 96 hr, remaining cells were fixed with ice-cold 10% w/v trichloroacetic acid (30 min) and stained with 0.4% SRB in 1% v/v acetic acid (15 min). Mean absorbance at 540 nm for each drug concentration was expressed as a percentage of the control untreated well absorbance, and IC50 values (concentration required to inhibit cell growth by 50%) were determined for each agent.

human telomerase = conditions: as described by Read et al., April 2001; cited from earlier work
[2] = Growth inhibition, sulforhodamine B (SRB) assay, CH1; assay type: cell-based; conditions: human, CH1 ovarian carcinoma cells, CH1, 96 hr incubation, tested as salts, read-out: Cytotoxicity - IC50 CH1
Protocol: as §1

[3] = Growth inhibition, sulforhodamine B (SRB) assay, A2780; assay type: cell-based; conditions: human, A2780 ovarian carcinoma cells, A2780, 96 hr incubation, tested as salts, read-out: Cytotoxicity - IC50 A2780
Protocol: as §1

[4] = Growth inhibition, sulforhodamine B (SRB) assay, SKOV-3; assay type: cell-based; conditions: human, SKOV-3 ovarian carcinoma cells, SKOV-3, 96 hr incubation, tested as salts, read-out: Cytotoxicity - IC50 SKOV-3
Protocol: as §1

telomerase = telomerase (Homo sapiens, UniProt O14746); test: Modified telomeric repeat amplification protocol (TRAP) assay, cell-free; assay type: biochemical; conditions: extracts from A2780 cells, tested as salts, read-out: telIC50 (Telomerase Inhibitory Activity)
Sequence of telomerase (O14746 whole entry): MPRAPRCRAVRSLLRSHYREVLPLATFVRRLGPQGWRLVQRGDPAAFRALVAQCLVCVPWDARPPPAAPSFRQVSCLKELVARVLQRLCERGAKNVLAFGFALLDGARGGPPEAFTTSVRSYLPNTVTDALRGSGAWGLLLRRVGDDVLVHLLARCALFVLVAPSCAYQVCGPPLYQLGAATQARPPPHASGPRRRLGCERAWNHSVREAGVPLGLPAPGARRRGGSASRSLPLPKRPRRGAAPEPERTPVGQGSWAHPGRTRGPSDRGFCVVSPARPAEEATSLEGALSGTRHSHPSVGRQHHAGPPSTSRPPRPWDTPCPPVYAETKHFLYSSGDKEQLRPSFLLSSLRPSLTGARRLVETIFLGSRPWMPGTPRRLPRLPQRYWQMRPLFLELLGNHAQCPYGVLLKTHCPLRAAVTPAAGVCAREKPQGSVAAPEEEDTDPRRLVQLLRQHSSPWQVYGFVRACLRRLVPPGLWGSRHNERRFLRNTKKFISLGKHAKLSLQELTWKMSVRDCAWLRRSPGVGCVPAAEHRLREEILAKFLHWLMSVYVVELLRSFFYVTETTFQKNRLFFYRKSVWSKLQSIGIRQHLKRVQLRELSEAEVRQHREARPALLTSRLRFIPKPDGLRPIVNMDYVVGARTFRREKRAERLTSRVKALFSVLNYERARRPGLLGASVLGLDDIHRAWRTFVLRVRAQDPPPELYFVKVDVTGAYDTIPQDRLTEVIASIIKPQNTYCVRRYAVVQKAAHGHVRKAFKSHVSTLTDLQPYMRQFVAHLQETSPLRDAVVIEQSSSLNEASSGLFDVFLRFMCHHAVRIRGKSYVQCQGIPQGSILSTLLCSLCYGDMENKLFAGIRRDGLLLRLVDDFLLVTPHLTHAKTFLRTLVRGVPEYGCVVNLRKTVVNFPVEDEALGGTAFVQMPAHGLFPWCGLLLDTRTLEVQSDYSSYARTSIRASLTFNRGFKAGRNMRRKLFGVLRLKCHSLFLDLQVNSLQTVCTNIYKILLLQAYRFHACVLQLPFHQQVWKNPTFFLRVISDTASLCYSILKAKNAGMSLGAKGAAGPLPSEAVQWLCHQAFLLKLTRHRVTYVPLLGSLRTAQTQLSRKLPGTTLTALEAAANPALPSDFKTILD
Protocol: The ability of compounds to inhibit telomerase in a cell-free assay was assessed with a modified TRAP assay using extracts from exponentially growing A2780 human ovarian carcinoma cells. The TRAP assay was performed in 2 steps: (a) telomerase-mediated extension of the forward primer (TS: 5′-AATCCGTCGAGCAGAGTT (SEQ ID NO:3), Oswel Ltd., Southampton, UK) contained in a 40 µL reaction mix comprising TRAP buffer (20 mM Tris-HCl (pH 8.3), 68 mM KCl, 1.5 mM MgCl2, 1 mM EGTA, 0.05% v/v Tween 20), 0.05 μg bovine serum albumin, 50 μM of each deoxynucleotide triphosphate, 0.1 μg TS primer, and 3 μCi of [α-^32P]dCTP (Amersham plc, UK). Protein (40 ng or 20 ng) was then incubated with the reaction mix+agent (acid addition and quaternary dimethiodide salts) at final concentrations of up to 50 μM for 20 min at 25° C. A lysis buffer (no protein) control, heat-inactivated protein control, and 50% protein (20 ng or 10 ng) control were included in each assay; and (b) while heating at 80° C. in a PCR block of a thermal cycler (Hybaid, UK) for 5 min to inactivate telomerase activity, 0.1 μg of reverse CX primer (3′-[…]-5′ (SEQ ID NO:4)) and 2 Units of Taq DNA polymerase (“red hot”, Advanced Biotechnologies) were added. A 3-step PCR was then performed: 94° C. for 30 s, 50° C. for 30 s, and 72° C. for 1 min for 31 cycles. Telomerase-extended PCR products in the presence or absence of compounds were then determined either by electrophoretic separation using 8% w/w acrylamide denaturing gels and analysis by phosphorimaging or autoradiography, or by harvesting on Whatman filters (25 mm glass microfibre) and analysis by liquid scintillation counting.

| Structure (SMILES) | IC50 at 96 h [1] [µM] | in vitro inhibitory activity against human telomerase (human telomerase) | IC50 at 96 h [2] [µM] | IC50 at 96 h [3] [µM] | IC50 at 96 h [4] [µM] | IC50 (telomerase) [µM] |
| --- | --- | --- | --- | --- | --- | --- |
| CN(C)c1ccc(Nc2c3ccc(NC(=O)CCN4CCCC4)cc3nc3cc(NC(=O)CCN4CCCC4)ccc23)cc1 [BR-ACO-19, N-{9-[4′-(N,N-Dimethylamino)phenylamino]}-3,6-bis(3-pyrrolidinopropionamido)acridine] | 15.8 | potent in vitro inhibitory activity | 10.1 | 10 | 13 | 0.095 |
| Nc1ccc(Nc2c3ccc(NC(=O)CCN4CCCC4)cc3nc3cc(NC(=O)CCN4CCCC4)ccc23)cc1 [BR-ACO-20, N-[9-(4′-Aminophenylamino)]-3,6-bis(3-pyrrolidinopropionamido)acridine] | – | potent in vitro inhibitory activity | > 25 | > 25 | > 25 | 0.06 |
| CC(=O)c1ccc(Nc2c3ccc(NC(=O)CCN4CCCC4)cc3nc3cc(NC(=O)CCN4CCCC4)ccc23)cc1 [JH-ACI-90, N-[9-(4′-Acetylphenylamino)]-3,6-bis(3-pyrrolidinopropionamido)acridine] | 2.2 | – | 1.8 | 3.2 | 3.4 | 0.04 |
| CC1(C)CC2CC(C)(CN2CCC(=O)Nc2ccc3c(Nc4ccc(N)cc4)c4ccc(NC(=O)CCN5CC6(C)CC5CC(C)(C)C6)cc4nc3c2)C1 [JH-ACI-101, N-{9-[4′-(Amino)phenylamino]}-3,6-bis[(1,3,3-trimethyl-6-azabicyclo[3.2.1]-octanamino)propionamido]-acridine] | 2.5 | – | 2.3 | 1.6 | 1.2 | 0.16 |
| CN(C)c1ccc(Nc2c3ccc(NC(=O)CCN4CC5(C)CC4CC(C)(C)C5)cc3nc3cc(NC(=O)CCN4CC5(C)CC4CC(C)(C)C5)ccc23)cc1 [JH-ACI-103, N-{9-[4′-(N,N-Dimethylamino)phenylamino]}-3,6-bis[(1,3,3-trimethyl-6-azabicyclo[3.2.1]-octanamino)propionamido]-acridine] | 2.5 | – | 3.2 | 1 | 2 | 0.14 |
| Nc1ccc(Nc2c3ccc(NC(=O)CCN4CCCC4)cc3nc3ccc(NC(=O)CCN4CCCC4)cc23)cc1 [JH-ACI-105, N-{9-[4′-(Amino)phenylamino]}-2,6-bis(3-pyrrolidinopropionamido)acridine] | > 25 | – | 15.8 | > 25 | > 25 | 0.08 |
| CN(C)CCC(=O)Nc1ccc2nc3ccc(NC(=O)CCN(C)C)cc3c(O)c2c1 [JH-ACO-22, 2,7-Bis(3-dimethylaminopropionamido)-9(10H)-acridone] | > 25 | – | > 25 | > 25 | > 25 | 1.92 |
| CN1CCN(CCC(=O)Nc2ccc3[nH]c4ccc(NC(=O)CCN5CCN(C)CC5)cc4c(=O)c3c2)CC1 [JH-ACO-28, 2,7-Bis[3-(4′-N-methyl)piperizinopropionamido]-9(10H)-acridone] | > 25 | – | > 25 | > 25 | > 25 | 0.66 |
| CC1(C)CC2CC(C)(CN2CCC(=O)Nc2ccc3c(=O)c4ccc(NC(=O)CCN5CC6(C)CC5CC(C)(C)C6)cc4[nH]c3c2)C1 [JH-ACO-32, 3,6-Bis[(1,3,3-trimethyl-6-azabicyclo[3.2.1]-octanamino)propionamido]-9(10H)-acridone] | 10 | – | 2.5 | 1.9 | 2.5 | 1.77 |
| O=C(CCN1CCCC1)Nc1ccc2c(NC3CC3)c3ccc(NC(=O)CCN4CCCC4)cc3nc2c1 [JM-ACI-14, N-[9-(Cyclopropylamino)]-3,6-bis(3-pyrrolidinopropionamido)acridine] | > 25 | – | > 25 | 19 | > 25 | 0.05 |
| CC1CCCCN1CCC(=O)Nc1ccc2nc3ccc(NC(=O)CCN4CCCCC4C)cc3c(O)c2c1 (centres unmarked) [JM-ACO-07, 2,7-Bis[3-(2-methylpiperidino)propionamido]-9(10H)-acridone] | > 25 | – | > 25 | > 25 | > 25 | 1.97 |
| O=C(CCN1CCC(O)CC1)Nc1ccc2nc3ccc(NC(=O)CCN4CCC(O)CC4)cc3c(O)c2c1 [JM-ACO-09, 2,7-Bis[3-(4-hydroxypiperidino)propionamido]-9(10H)-acridone] | > 25 | – | > 25 | > 25 | > 25 | 1.58 |
| O=C(CCN1CCCCC1CO)Nc1ccc2[nH]c3ccc(NC(=O)CCN4CCCCC4CO)cc3c(=O)c2c1 (centres unmarked) [JM-ACO-12, 2,7-Bis[3-(2-hydroxymethylpiperidino)propionamido]-9(10H)-acridone] | > 25 | – | > 25 | > 25 | > 25 | 2.33 |
| CN(C)CCNc1c2ccc(NC(=O)CCN3CCCC3)cc2nc2cc(NC(=O)CCN3CCCC3)ccc12 [SB-ACI-11, N-[9-(N,N-Dimethylethylenediamino)]-3,6-bis(3-pyrrolidinopropionamido)acridine] | > 25 | – | 17 | > 25 | > 25 | 0.018 |
| CN1CCCC1CCNc1c2ccc(NC(=O)CCN3CCCC3)cc2nc2cc(NC(=O)CCN3CCCC3)ccc12 (centres unmarked) [SB-ACI-12, N-{9-[2-(2′-Aminoethyl)-1-methylpyrrolidino]}-3,6-bis(3-pyrrolidinopropionamido)acridine] | ≥ 25 | – | > 25 | > 25 | > 25 | 0.018 |
| O=C(CCN1CCCC1)Nc1ccc2c(NCc3cccnc3)c3ccc(NC(=O)CCN4CCCC4)cc3nc2c1 [SB-ACI-13, N-[9-(Pyridin-3′-yl-methylamino)]-3,6-bis(3-pyrrolidinopropionamido)acridine] | > 25 | – | > 25 | > 25 | > 25 | 0.066 |
| CC(=O)Nc1cccc(Nc2c3ccc(NC(=O)CCN4CCCC4)cc3nc3cc(NC(=O)CCN4CCCC4)ccc23)c1 [SB-ACI-14, N-{9-[(3′-Acetamido)aminophenyl]}-3,6-bis(3-pyrrolidinopropionamido)acridine] | > 25 | – | > 25 | > 25 | > 25 | 0.1 |
